Publication PMC6926962, “Pentafluorophenyl Platinum(II) Complexes of PTA and Its N-Allyl and N-Benzyl Derivatives: Synthesis, Characterization and Biological Activity” (Materials, 2019)
Read-outs that look alike come from different tables or passages of the source.

Assays:
[1] = system: A549 (human lung carcinoma); parameters: method as in PMID 31237306; conditions: nd = not detectable, read-out: Half maximal inhibitory concentration (IC50); cited from earlier work
[2] = target: T1, human serum albumin (HSA) (Homo sapiens, UniProt P02768); conditions: under the same conditions; cited from earlier work
T1 construct: High purity free-HSA (>96%, Sigma-Aldrich, Steinheim, North Rhine-Westphalia, Germany) was used as purchased; purchased Sigma-Aldrich

[3] = system: HeLa (human cervix carcinoma); parameters: method as in PMID 31237306; conditions: nd = not detectable, read-out: Half maximal inhibitory concentration (IC50); cited from earlier work
[4] = system: NHDF (normal human dermal fibroblasts); parameters: method as in PMID 31237306; conditions: nd = not detectable, read-out: Half maximal inhibitory concentration (IC50); cited from earlier work
[5] = system: MCF7 (human breast adenocarcinoma); parameters: method as in PMID 31237306; conditions: nd = not detectable, read-out: Half maximal inhibitory concentration (IC50); cited from earlier work
[6] = system: HeLa (human cervix carcinoma); test: MTT cell viability assay, HeLa; type: cell-based; conditions: 72 h incubation, read-out: Half maximal inhibitory concentration (IC50)
Experimental: (§1) NHDF (normal human dermal fibroblasts; PromoCell, C-12302), A549 (human lung carcinoma; ATCC, No CCL-185 ^TM), HeLa (human cervix carcinoma; ATCC, No CCL-2 ^TM) and MCF7 (human breast adenocarcinoma; ATCC, No HTB-22 ^TM) were used. NHDF, A549, HeLa and MCF7 cell lines were cultured in DMEM (Lonza, Basel, Switzerland). Media were supplemented with 10% FBS (Biological Industries, Kibbutz Beit-Haemek, Israel), 4 mM L-glutamine (Biological Industries, Kibbutz Beit-Haemek, Israel), 100 U/mL of penicillin and 100 µg/mL of streptomycin (Sigma, Steinheim, North Rhine-Westphalia, Germany).
(§2) All cell cultures were inserted in a 96-well plate (Eppendorf, Freie und Hansestadt Hamburg, Germany) in a concentration of 10^5 cells per well.
(§3) Compounds 2a–c and ligands 1a–c were dissolved in distilled water and diluted to afford concentrations of 30, 3, 0.3 and 0.03 μg/mL in DMEM and incubated in standard conditions for 72 h, after which the MTT (Sigma, Steinheim, North Rhine-Westphalia, Germany) assay was carried out. 20 µL of MTT (5 mg/mL) was added to each well, incubation for 4 h at 37 °C was implemented, and then 80 µL of lysis buffer was added. The test consists in the enzymatic reduction of the tetrazolium salt MTT in metabolically active cells. The metabolite, purple-colored formazan is measured colorimetrically, using a multiwell plate reader. The optical density (OD) was measured using a spectrophotometric microplate reader (Multiscan Go, Thermo Fisher, Waltham, MA, USA) at 570 nm with reference wavelength of 630 nm. The viability of the investigated cell cultures was estimated using following formula: viability% = (average OD for test group/average OD for control group) × 100. The untreated cells were used as a control group.

[7] = system: NHDF (normal human dermal fibroblasts); test: MTT cell viability assay, NHDF; type: cell-based; conditions: 72 h incubation, read-out: Half maximal inhibitory concentration (IC50)
Experimental: as §1, §2, §3

[8] = system: MCF7 (human breast adenocarcinoma); test: MTT cell viability assay, MCF7; type: cell-based; conditions: MCF7, 72 h incubation, read-out: Half maximal inhibitory concentration (IC50)
Experimental: as §1, §2, §3

[9] = system: A549 (human lung carcinoma); test: MTT cell viability assay, A549; type: cell-based; conditions: A549, 72 h incubation, read-out: Half maximal inhibitory concentration (IC50)
Experimental: as §1, §2, §3

[10] = Octanol-water partition coefficient determination; type: physicochemical; conditions: 24 °C, 10^−3 M in water saturated with octanol
Experimental: The log(P) values corresponding to the octanol–water partition coefficient was adjusted to the solubility properties of the compounds [84]. Complexes were dissolved in water previously saturated with octanol, to achieve concentrations of 10^−3 M. At 24 °C, 25 mL of octanol saturated with water was introduced into a 100 mL flask equipped and then 25 mL of the aqueous complex solutions was added. The two-phase mixture thus obtained was stirred vigorously for 20 min. After separation of the phases and removal of the respective solvents under vacuum, the attained residues were weighed. Values for log(P) of −0.11, −0.71 and −0.40 for 2a, 2b and 2c, respectively, were obtained.

[11] = target: T1, human serum albumin (HSA); test: HSA interaction, fluorescence quenching (Trp-214); type: binding; conditions: for KSV (Stern-Volmer constant): HSA 10 μM, pH 7.40; for ΔH^0 / ΔS^0: van't Hoff; for maximum blue shift of HSA fluorescence emission: HSA emission max 335 nm, λex 295 nm
Experimental: High purity free-HSA (>96%, Sigma-Aldrich, Steinheim, North Rhine-Westphalia, Germany) was used as purchased. The stock solutions of platinum complexes (200 μM) were freshly prepared in double distilled water prior to their use. The HSA solutions (200 μM) were prepared in PBS (pH 7.40). In the final step, the samples contained (protein):(drug) equal 1:0–1:9 in PBS, where CHSA was 10 μM. Measurements were done after 24 h incubation at 300, 305 and 310 K. HSA concentration was determined, using A279 (1 mg/mL) as 0.531 [85].
Emission fluorescence spectra were recorded using Hitachi F-2700 spectrofluorimeter (Tokio, Japan) in 1.0 cm quartz cells in the 300–400 nm range. Trp-214 fluorescence of HSA was measured at 295 nm. The intensity at 335 nm (Trp-214) was used to achieve the quenching mechanism and calculate the binding constants and thermodynamic parameters according to literature reports.

Solubility in water = type: physicochemical; conditions: 25 °C
[12] = target: T1, human serum albumin (HSA); test: HSA interaction, circular dichroism; type: binding; conditions: HSA/complex molar ratio 1/10; free HSA 50.88%
Experimental: High purity free-HSA (>96%, Sigma-Aldrich, Steinheim, North Rhine-Westphalia, Germany) was used as purchased. The stock solutions of platinum complexes (200 μM) were freshly prepared in double distilled water prior to their use. The HSA solutions (200 μM) were prepared in PBS (pH 7.40). […] Measurements were done after 24 h incubation at 300, 305 and 310 K. HSA concentration was determined, using A279 (1 mg/mL) as 0.531 [85].
Circular dichroism spectra were recorded on a Jasco J-715 spectropolarimeter, over the range of 190–250 nm in 0.1 cm cuvettes. The α-helical content of HSA was calculated from the molar ellipticity (θ) at 208–210 nm using Equations (1) and (2): (1) MRE209=ObservedCD (mdeg)/Cp·n·l·10, (2) α−helix (%)=MRE209−4000/33000−4000×100, where MRE is the mean residue ellipticity, Cp is the molar concentration of the protein, n is the number of amino acid residues (583) and l is the path-length (0.1 cm).

T1 sequence (P02768 25-609): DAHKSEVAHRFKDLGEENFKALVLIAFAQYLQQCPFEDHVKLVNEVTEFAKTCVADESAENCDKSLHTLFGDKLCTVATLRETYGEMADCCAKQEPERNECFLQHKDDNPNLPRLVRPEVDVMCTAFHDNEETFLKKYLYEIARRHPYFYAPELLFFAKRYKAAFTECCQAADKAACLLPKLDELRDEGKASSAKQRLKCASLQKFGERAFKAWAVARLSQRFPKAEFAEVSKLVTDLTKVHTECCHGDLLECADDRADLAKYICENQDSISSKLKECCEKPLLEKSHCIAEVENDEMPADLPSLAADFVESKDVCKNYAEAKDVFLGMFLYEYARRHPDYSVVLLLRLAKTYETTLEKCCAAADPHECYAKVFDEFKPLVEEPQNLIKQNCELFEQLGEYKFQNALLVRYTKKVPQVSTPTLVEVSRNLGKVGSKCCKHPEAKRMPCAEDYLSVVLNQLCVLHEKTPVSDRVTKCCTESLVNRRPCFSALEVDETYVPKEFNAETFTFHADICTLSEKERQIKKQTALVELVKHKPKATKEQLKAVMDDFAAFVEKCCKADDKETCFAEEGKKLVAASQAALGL

Compound	IC50 ([6]; Homo sapiens) [µM]	IC50 ([7]; Homo sapiens) [µM]	IC50 ([8]; Homo sapiens) [µM]	IC50 ([9]; Homo sapiens) [µM]	log(P) octanol-water partition coefficient [10]	IC50 [6] [µM]	IC50 [7] [µM]	IC50 [8] [µM]	KA (association constant) ([11]; 300 K) [M⁻¹]	Kq (quenching rate constant) ([11]; 300 K) [M⁻¹ s⁻¹]	n (number of binding sites) ([11]; 300 K)	ΔG^0 ([11]; 300 K) [kcal/mol]	KSV (Stern-Volmer constant) ([11]; 300 K) [M⁻¹]	ΔH^0 ([11]; 300 K) [kcal/mol]	ΔS^0 ([11]; 300 K) [J mol^−1·K^−1]	KA (association constant) ([11]; 305 K) [M⁻¹]	Kq (quenching rate constant) ([11]; 305 K) [M⁻¹ s⁻¹]	n (number of binding sites) ([11]; 305 K)	solubility in H2O (S25 °C) (Solubility in water)	IC50 [9] [µM]	further results
N.N.[Cl][Pt][Cl] [Cisplatin, cisplatin]	–	–	–	–	–	–	–	–	–	–	–	–	–	–	–	–	–	–	–	–	IC50 [1]: 33.3 ± 4.2 µM; binding constant Ka for cisplatin-HSA complex [2]: 852 M⁻¹; IC50 [3]: 16.6 ± 3.1 µM; IC50 [4]: 16.6 ± 2.1 µM; IC50 [5]: 33.3 ± 4.2 µM
C=CC[N+]12CN3CN(CP(C3)C1)C2 [Compound 1b, 1-allyl-1-azonia-3,5-diaza-7-phosphaadamantane]	65.8 ± 6.6	> 263	> 263	> 263	–	–	–	–	–	–	–	–	–	–	–	–	–	–	–	–	–
c1ccc(C[N+]23CN4CN(CP(C4)C2)C3)cc1 [Compound 1c, 1-benzyl-1-azonia-3,5-diaza-7-phosphaadamantane]	56 ± 16	> 224	72.4 ± 2.4	> 224	–	–	–	–	–	–	–	–	–	–	–	–	–	–	–	–	–
C=CC[N+]12CN3CN(C1)C[PH]([Pt]([Cl])([c]1c(F)c(F)c(F)c(F)c1F)[PH]14CN5CN(C[N+](CC=C)(C5)C1)C4)(C3)C2.F[B-](F)(F)F.F[B-](F)(F)F [Compound 2b, trans-(PtCl(C6F5)(APTA)2)(BF4)2]	–	–	–	–	−0.71	29.5 ± 1.3	26.9 ± 3.5	> 31	9880	1.77e+12	1.26	-5.43	8850	4.02	131.4	9900	1.96e+12	0.96	≈ 4.0 mg mL^−1	7.79 ± 1.7	ΔG^0 ([11]; 305 K): -5.57 kcal/mol; KSV (Stern-Volmer constant) ([11]; 305 K): 9780 M⁻¹; ΔH^0 ([11]; 305 K): 4.02 kcal/mol; ΔS^0 ([11]; 305 K): 131.4 J mol^−1·K^−1; KA (association constant) ([11]; 310 K): 11000 M⁻¹; Kq (quenching rate constant) ([11]; 310 K): 2.08e+12 M⁻¹ s⁻¹; n (number of binding sites) ([11]; 310 K): 1.24; KSV (Stern-Volmer constant) ([11]; 310 K): 10400 M⁻¹; maximum blue shift of HSA fluorescence emission [11]: ca. 3 nm; content of α-helix of HSA [12]: 46.29%
F[B-](F)(F)F.F[B-](F)(F)F.Fc1c(F)c(F)[c]([Pt-3]([Cl])([P+]23CN4CN(C[N+](Cc5ccccc5)(C4)C2)C3)[P+]23CN4CN(C[N+](Cc5ccccc5)(C4)C2)C3)c(F)c1F [Compound 2c, trans-(PtCl(C6F5)(BzPTA)2)(BF4)2]	–	–	–	–	−0.40	8.89 ± 4.1	11.2 ± 3.1	> 28.1	14500	2.72e+12	1.25	-5.71	13600	1.71	103.5	15200	2.96e+12	0.99	≈ 3.0 mg mL^−1	> 28.1	ΔG^0 ([11]; 305 K): -5.83 kcal/mol; KSV (Stern-Volmer constant) ([11]; 305 K): 14800 M⁻¹; ΔH^0 ([11]; 305 K): 1.71 kcal/mol; ΔS^0 ([11]; 305 K): 103.5 J mol^−1·K^−1; KA (association constant) ([11]; 310 K): 15900 M⁻¹; Kq (quenching rate constant) ([11]; 310 K): 3.24e+12 M⁻¹ s⁻¹; n (number of binding sites) ([11]; 310 K): 1.59; KSV (Stern-Volmer constant) ([11]; 310 K): 16200 M⁻¹; maximum blue shift of HSA fluorescence emission [11]: ~5 nm; content of α-helix of HSA [12]: 47.17%
trans-(PtCl(C6F5)(PTA)2) [Compound 2a]	–	–	–	–	−0.11	> 42.1	26.1 ± 0.68	> 42.1	–	–	–	–	–	–	–	–	–	–	≈ 0.35 mg mL^−1	15.4 ± 5.3	–
